This note sets out measurements from patent US20260315431A1, “NANOMATERIAL ENCAPSULATED BIOFILM INHIBITORS FOR DENTAL CARIES TREATMENT” (THE UAB RESEARCH FOUNDATION, priority 2023, published 2026).

Like-named read-outs stand apart in the source and are kept apart here.

Usually IC50 stands for the midpoint of a concentration-inhibition curve.

A short description of series [1]: HA5 loading into (PMAA)5 hydrogel (UV-visible spectroscopy). The format is physicochemical. The note with it: (PMAA)5 hydrogel cubes soaked in 5 mg/mL HA5 in methanol, 48 h. As to the method: Encapsulation of HA5 inside (PMAA)5 hydrogels microparticles. Compound HA5 was encapsulated in the (PMAA)5 hydrogel cubes through post-loading by soaking the hydrogels in 5 mg/mL solution of HA5 in methanol for 48 h in the dark (FIGS. 1.7A-B). The free, non-encapsulated HA5 was removed from particle solution by rinsing with HEPES buffer (pH=7.4) five times using centrifugation at 5000 rpm for 10 min. The HA5 quantification was carried out with UV-visible spectroscopy (NanoDrop One C, ThermoFisher) at λ=448 nm using an HA5 calibration curve. The drug solution was analyzed before and after the exposure to the hydrogel particles and the differences in the absorbance spectra were used to determine the loading of the drug into the hydrogel network. […] Freshly extracted, intact third molars with flat surfaces obtained from Dr. Nathaniel Lawson's lab (UAB School of Dentistry, IRB-300001291) were used in these studies. The AFM silicon probes NSG30 (NT-MDT, resonance frequency 240-440 kHz, force constant 22-100 N m^−1, tip radii is 10 nm, scan rate is 0.5 Hz) were used for imaging the tooth surfaces in tapping mode before and after hydrogel adhesion. […] The height of the dried hydrogel cubes was determined using section profiles, which indicated an average particle height of 1.3±0.2 μm. […]

For series [2], the system named is S. mutans Gtfs. Kind of series: Gtf inhibition determined by glucan quantification. The format is biochemical, Streptococcus mutans. The note with it: role: inhibitor. From the text: The interspecies co-adherence between S. mutans and other microorganisms in the oral cavity is critical for biofilm formation and cariogenicity. Though the mechanisms of such adhesions and co-aggregations are not fully elucidated, it is believed that the extracellular polysaccharide (EPS) matrix of S. mutans has an important role in this process^49, 50. It is reported that glucans synthesized by Gtfs when incorporated into the tooth pellicle to provide enhanced binding sites for other microorganisms to form stable and persistent microcolonies, which provides mechanical stability to the EPS matrix^50, 51. Therefore, Gtf inhibition assays were performed to assess the ability of HA5 to inhibit the Gtfs and glucan production using a reported procedure and IC50 value was calculated^52.
HA5 is a polyhydroxy compound that contains a Michael acceptor functionality which raises concerns about non-specific and covalent binding.
Gtf inhibition determined by glucan quantification assays. Overnight cultures of S. mutans UA159 were centrifuged (6500 rpm, 4° C., 10 min) to remove cells. Supernatant was mixed with ethanol (1:1) and incubated at −80° C. for 1 h. The precipitated Gtfs were palleted using centrifugation and resuspended in chemically defined media (CDM) 10 μL of Gtfs suspended in CDM were assayed on Ibidi slides with varying concentrations of inhibitor, 1% sucrose, 1% DMSO and 1 μM Cascade blue dye in CDM. The slides were then incubated at 37° C. with 5% CO2 for 16 h after which, the wells of Ibidi slides were gently rinsed with 1×PBS and treated with 1×PBS for fluorescence microscopy imaging. The images obtained were processed in ImageJ to quantify glucans and graphed in GraphPad Prism.
Gtf inhibition assays were performed to assess the ability of HA6 to inhibit the Gtfs and glucan production using a reported procedure and IC50 value was calculated^[44, 45] Overnight cultures of S. mutans UA159 were centrifuged (6500 rpm, 4° C., 10 min) to remove the cells. Supernatant was mixed with ethanol (1:1) and incubated at −80° C. for 1 h. The precipitated Gtfs were palleted using centrifugation and resuspended in CDM (1 mL). 10 μL of Gtfs suspension in CDM was assayed on Ibidi slides with varying concentrations of PEHA5 or HA6, 1% sucrose, 1% DMSO and 1 μM Cascade blue dextran conjugated dye in CDM. The slides were then incubated at 37° C. with 5% CO2 for 16 h after which, the wells of Ibidi slides were gently rinsed with 1×PBS and imaged using fluorescence microscopy. The images obtained were processed in ImageJ to quantify glucans and graphed in GraphPad Prism 10.0.2.

For `O=C1/C(=C/c2cc(O)c(O)cc2O)Oc2ccccc21` [HA5, 2-[(2′,4′,5′-Trihydroxyphenyl)methylidene]-2,3-dihydro-1-benzofuran-3-one], in series [1], the loading capacity was 5.5×10^−3 ng of HA5 per particle. The IC50 in series [2] (1% sucrose, 1% DMSO, no BME or Triton-X-100, read-out: Gtf inhibition (glucan production) IC50) was 10.6 µM; in series [2] (no BME, unit M, read-out: Gtf inhibition (glucan production) IC50), 10.6 µM; in series [2] (with beta-mercaptoethanol 1 mM, read-out: Gtf inhibition IC50 in the presence of BME) it was 7.84 µM; in series [2] (with detergent Triton-X-100, read-out: Gtf inhibition IC50 in the presence of Triton-X-100) it was 5.16 µM.
